One data set has as its system hiPSC-CMs. As to the kind of experiment: Intracellular prodrug, cleavage intermediate metabolite and NTP metabolite concentrations in hiPSC-CMs. It is filed as in vitro ADME, human. As to conditions: for Intracellular Concentration, Cleavage Intermediate Metabolite / Intracellular Concentration, NTP Metabolite: BLOQ = below 17 pmol/million cells; for Effect of CatA inhibitor on sofosbuvir cleavage intermediate metabolite in hiPSC-CMs: hiPSC-CMs incubated with sofosbuvir. The protocol: Approximately 18 h before dosing, iCell hiPSC-CMs were switched to iCell cardiomyocyte maintenance media free of Penicillin/Streptomycin. […] […] After the corresponding treatment, cells were washed 2x with 200 μL of ice-cold magnesium- and calcium-free PBS buffer. Cells were then lysed in 100 μL of ice-cold lysis solution (70/30 methanol/water containing 20 mM EDTA and 20 mM EGTA, pH 8) by pipetting up and down 5 times. Plates were sealed and transferred on dry ice for determination of prodrug, cleavage intermediate metabolite, and NTP metabolite concentrations. Intracellular prodrug concentrations were measured using a reversed phase HPLC- high resolution mass spectrometry method. A dimethylhexylamine based ion-pairing HPLC-MS/MS method was used to measure intracellular cleavage intermediate metabolite and NTP metabolite concentrations. Intracellular concentrations (pmol/million cells) of prodrug, cleavage intermediate metabolite, and NTP metabolite were quantitated against calibration standards of the same analytes prepared from control iCell hiPSC-CM lysates.
For prodrug analyses, full scan high resolution mass spectrometry data was collected using an Exactive™ Orbitrap mass spectrometer with an electrospray source operated in the positive ion mode. Prodrug chromatograms were extracted from full scan high resolution mass spectrometry data for the masses indicated in Supplementary Table 5. Absence of endogenous interference(s) was verified by extracting the same ion from full scan high resolution mass spectrometry chromatograms of unspiked control cell lysates. For the cleavage intermediate metabolite and NTP metabolite an electrospray MS/MS method run on a SCIEX API 4000 mass spectrometer with turboV ionspray source was used in negative ion mode monitoring the transitions indicated in Supplementary Table 5. Absence of endogenous interference(s) was verified by monitoring of the same MRM transitions for unspiked control cell lysates. Measured intracellular prodrug, cleavage intermediate metabolite, and NTP metabolite concentrations (in pmol/million cells units) were tabulated (Table 2).

The test system of another data set is hiPSC-CM syncytia. As to the kind of experiment: Spontaneous FP rate and IMP amplitude/beating rate in hiPSC-CM syncytia (RTCA CardioECR / RTCA Cardio). In kind it is cell-based, human. The protocol: hiPSC-CMs (iCells®) from Cellular Dynamics International (CDI, Madison, WI, USA) were seeded onto 48-well CardioECR or 96-well Cardio E-Plates® (ACEA Biosciences Inc., San Diego, CA, USA) coated with 10 μg/mL fibronectin (Sigma Aldrich, Catalog# F1141) at 30,000 cells/well, following manufacturer’s recommendations. Cells were maintained in culture (37 °C, 5% CO2) for a period of 14 days with iCell Maintenance® media (CDI, Madison, WI, USA) exchanged every 2–3 days. Compound addition was only performed on or after Day 14 following cell seeding.
Compound stock solutions were prepared in 100% DMSO or H2O. On the day of compound addition, the media was exchanged with fresh iCell Maintenance® media and allowed to equilibrate for at least 3 h in the incubator. The plates were read on an xCELLigence® RTCA CardioECR or RTCA Cardio (ACEA Biosciences Inc., San Diego, CA, USA). Control pre-reads to establish a baseline were recorded for at least 45 minutes (4 reads at 15-min intervals) prior to compound addition. The compound stock solutions were diluted into iCell Maintenance® media and quickly added to the plate. The plate was continuously monitored for at least 18 h following compound addition. IMP data were sampled at 12 ms (83 Hz), while FP rate data were collected at 0.1 ms (10 KHz). Attachment, growth and viability of syncytia were monitored by means of the baseline IMP signal, as previously described. IMP and FP signals were only interpreted if the baseline IMP was maintained throughout the measurement period (usually ≤18 hrs) at ≥70% of the value before test compound application (pre-read value).

[1] abbreviates: hiPSC-CMs, 10 μM prodrug alone, 4 Hours.
Setting [2] is: hiPSC-CMs, 10 μM prodrug alone, 30 Min.
Where [3] appears, read: hiPSC-CMs, 10 μM prodrug + 0.3 μM amiodarone, 30 Min.
The mark [4] stands for this setting: prodrug co-administered with 0.3 μM amiodarone, steady state (4 h), spontaneously beating hiPSC-CM syncytia.

As to `CC(C)OC(=O)C(C)NP(=O)(OCC1OC(n2ccc(=O)[nH]c2=O)C(C)(F)C1O)Oc1ccccc1` (stereo not drawn) [MNI-6], in the data set with hiPSC-CMs (setting [1]), the “Intracellular Concentration, Prodrug” value came out at 65.5 ± 5.8 pmol/million cells; the “Intracellular Concentration, Cleavage Intermediate Metabolite” value is recorded as “B LOQ”; the “Intracellular Concentration, NTP Metabolite” value was “B LOQ”. Besides, in the data set on hiPSC-CMs (setting [2]), the “Intracellular Concentration, Prodrug” value came out at 46.6 ± 3.1 pmol/million cells; the “Intracellular Concentration, Cleavage Intermediate Metabolite” value is recorded as “B LOQ”; the “Intracellular Concentration, NTP Metabolite” value is “B LOQ”.

Consider `CC[C@@H](C)[C@@H](O)[C@H](C)C(=O)[C@H](C)/C=C(\C)C[C@H](C)[C@@H]1OC(=O)[C@H]1CC` [Ebel, ebelactone B, reference compound], for which the “Effect of CatA inhibitor on sofosbuvir cleavage intermediate metabolite in hiPSC-CMs” value in the data set on hiPSC-CMs is given as “transiently inhibited the formation of the sofosbuvir cleavage intermediate metabolite to levels below the limit of quantitation after 30 min incubation”. Also, the “Effect of CatA inhibitor on L-ala,SP prodrug + amiodarone effects (FP rate, IMP amplitude)” value in the data set on hiPSC-CM syncytia (30 min pre-incubation and continued incubation, Ebel 3 or 10 μM with sofosbuvir or MNI-1, SAR164653 30 μM with 1 μM MNI-1, 0.3 μM amiodarone) is reported as “concentration-dependent exacerbation”.

As for `CC(C)OC(=O)C(C)NP(=O)(OCC1OC(n2ccc(=O)[nH]c2=O)C(C)(F)C1O)Oc1ccccc1` (stereo not drawn) [MNI-5], in the data set with hiPSC-CMs (setting [1]), the “Intracellular Concentration, Prodrug” value came to 97.1 ± 36.8 pmol/million cells; the “Intracellular Concentration, Cleavage Intermediate Metabolite” value is given as 121.0 ± 6.24 pmol/million cells; the “Intracellular Concentration, NTP Metabolite” value is recorded as “B LOQ”. For the same compound, in the data set on hiPSC-CMs (setting [2]), the “Intracellular Concentration, Prodrug” value stood at 53.6 ± 14.2 pmol/million cells; the “Intracellular Concentration, Cleavage Intermediate Metabolite” value was “B LOQ”; the “Intracellular Concentration, NTP Metabolite” value is given as “B LOQ”. In addition, in the data set on hiPSC-CMs (hiPSC-CMs, after 4-h incubation), the “Reduction of cleavage intermediate metabolite level compared to sofosbuvir” value is listed as ~ 80%.

As to `CC(C)OC(=O)[C@H](C)NP(=O)(OC[C@H]1O[C@@H](n2ccc(=O)[nH]c2=O)[C@](C)(Cl)[C@@H]1O)Oc1ccccc1` (stereo partly drawn) [MNI-3, isopropyl (2S)-2-[[[(2R,3R,4R,5R)-4-chloro-5-(2,4-dioxopyrimidin-1-yl)-3-hydroxy-4-methyl-tetrahydrofuran-2-yl]methoxy-phenoxy-phosphoryl]amino]propanoate], the “Intracellular Concentration, Prodrug” value with hiPSC-CMs (hiPSC-CMs, 10 μM prodrug + 0.3 μM amiodarone, 4 Hours) was found to be 94.0 ± 6.0 pmol/million cells; in the data set with hiPSC-CMs (setting [3]), 89.8 ± 12.5 pmol/million cells; with hiPSC-CMs (setting [1]), 106.9 ± 10.1 pmol/million cells; in the data set with hiPSC-CMs (setting [2]), 97.3 ± 14.0 pmol/million cells. The “Intracellular Concentration, NTP Metabolite” value in the data set on hiPSC-CMs (setting [3]) and in the data set with hiPSC-CMs (setting [2]) was “BLOQ” throughout. For the same compound, in the data set on hiPSC-CM syncytia (setting [4]), the “Effect on FP rate” value is reported as “Concentration-dependent, steady-state effects”. Also, in the data set with hiPSC-CM syncytia (setting [4]), the “Effect on IMP amplitude” value is reported as “Concentration-dependent, steady-state effects”.

In the case of `COc1cc(C(=O)N[C@@H](CC(=O)O)c2ccccc2C)nn1-c1ccccc1F` [SAR164653, reference compound], the “Effect of CatA inhibitor on sofosbuvir cleavage intermediate metabolite in hiPSC-CMs” value in the data set on hiPSC-CMs is “decreased, with concentration and time dependence”.

The values are drawn from publication PMC5361079 (Scientific Reports, 2017).
